Assay results published in US12662491B2 (Redona Therapeutics, Inc., priority 2020, dated 2026).
Read-outs that look alike come from different tables or passages of the source.

Biological target: T1, Zcchc11 enzyme (Homo sapiens, UniProt Q5TAX3)
T1 construct: made in house; host or cells: HEK293 cells (Zcchc11); E. coli Rosetta II (LIN28A)
T1 sequence (Q5TAX3 212-1420): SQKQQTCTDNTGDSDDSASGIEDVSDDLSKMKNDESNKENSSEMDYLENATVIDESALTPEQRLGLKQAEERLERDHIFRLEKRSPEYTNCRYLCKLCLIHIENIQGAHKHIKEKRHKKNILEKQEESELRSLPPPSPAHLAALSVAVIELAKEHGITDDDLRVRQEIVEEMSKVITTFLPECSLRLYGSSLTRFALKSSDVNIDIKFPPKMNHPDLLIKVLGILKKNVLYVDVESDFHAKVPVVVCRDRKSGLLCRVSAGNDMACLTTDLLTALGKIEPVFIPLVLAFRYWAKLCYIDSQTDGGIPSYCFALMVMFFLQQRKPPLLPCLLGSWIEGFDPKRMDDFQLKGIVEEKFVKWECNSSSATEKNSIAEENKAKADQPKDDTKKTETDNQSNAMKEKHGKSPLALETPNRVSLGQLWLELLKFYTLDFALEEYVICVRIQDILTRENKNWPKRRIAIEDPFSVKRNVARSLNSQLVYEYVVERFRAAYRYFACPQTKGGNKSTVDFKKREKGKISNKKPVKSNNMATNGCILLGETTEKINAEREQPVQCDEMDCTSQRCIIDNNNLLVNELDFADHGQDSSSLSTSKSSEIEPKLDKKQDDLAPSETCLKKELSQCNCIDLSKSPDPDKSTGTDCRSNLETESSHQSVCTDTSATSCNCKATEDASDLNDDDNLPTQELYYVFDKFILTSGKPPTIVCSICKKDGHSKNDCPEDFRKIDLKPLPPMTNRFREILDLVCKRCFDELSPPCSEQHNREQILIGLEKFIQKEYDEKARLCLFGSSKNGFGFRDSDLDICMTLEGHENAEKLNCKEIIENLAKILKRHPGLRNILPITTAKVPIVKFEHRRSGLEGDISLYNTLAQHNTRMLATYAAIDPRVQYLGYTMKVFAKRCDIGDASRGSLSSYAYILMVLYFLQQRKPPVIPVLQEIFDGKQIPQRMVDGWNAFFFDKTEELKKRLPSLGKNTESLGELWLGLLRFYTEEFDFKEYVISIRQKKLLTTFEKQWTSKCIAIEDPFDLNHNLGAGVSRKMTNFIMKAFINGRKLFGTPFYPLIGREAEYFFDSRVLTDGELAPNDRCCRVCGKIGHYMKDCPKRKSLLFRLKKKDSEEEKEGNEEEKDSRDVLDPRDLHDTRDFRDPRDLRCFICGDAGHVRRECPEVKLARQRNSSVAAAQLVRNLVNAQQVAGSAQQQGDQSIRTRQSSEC
Assay: TUTase assay (Zcchc11 assay, Lin28a-dependent polyuridylation of pre-let-7)
Type: biochemical
Conditions: read-out: Potency Lin28a-dep Z11 IC50
Procedure, shortened: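 HEK293-expressed human Zcchc11 (residues 212-1420, 0.2 nM) with 10 nM LIN28A and 2 nM 5′-fluorescein pre-let-7, preincubated 30 min at room temperature, pH 7.3. Started with 5 uM UTP; poly(U) tails quenched by 3′-rhodamine A20 probe, read kinetically. IC50 from early-rate four-parameter fit; no-UTP wells define 0%.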

[1] = Lin28a-dependent Zcchc11 (Z11) TUTase activity
[2] = Lin28a-dependent Zcchc11 (Z11) TUTase assay

Compound	IC50 [1]	IC50 [2]
Cc1cccnc1OC[C@H]1CCCN1c1cc2c(cc1F)c(=O)c(C(=O)O)cn2-c1ccc(F)c(O)c1 [Compound 121, (R)-6-fluoro-1-(4-fluoro-3-hydroxy-phenyl)-7-(2-(((3-methylpyridin-2-yl)oxy)methyl)pyrrolidin-1-yl)-4-oxo-1,4-dihydro-quinoline-3-carboxylic acid]	≤ 1000 nM	–
O=C(O)c1cn(-c2cnccn2)c2cc(N3CCCCC3COc3ccccn3)c(Cl)cc2c1=O (stereo not shown) [Compound 211, 6-Chloro-4-oxo-1-(pyrazin-2-yl)-7-{2-[(pyridin-2-yloxy)methyl]piperidin-1-yl}quinoline-3-carboxylic acid]	1000 to 10000 nM	–
O=C(O)c1cn(-c2ccc(C3(O)CNC3)nc2)c2cc(N3CCC[C@@H]3COc3ncccc3Cl)c(Cl)cc2c1=O [Example 611, (R)-6-chloro-7-(2-(((3-chloropyridin-2-yl)oxy)methyl)pyrrolidin-1-yl)-1-(6-(3-hydroxyazetidin-3-yl)pyridin-3-yl)-4-oxo-1,4-dihydroquinoline-3-carboxylic acid]	–	≤ 1000 nM
CCc1ccccc1-n1cc(C(=O)O)c(=O)c2cc(F)c(N3CCC[C@@H]3COc3ccccn3)cc21 [Example 404, (R)-1-(2-ethylphenyl)-6-fluoro-4-oxo-7-(2-((pyridin-2-yloxy)methyl)pyrrolidin-1-yl)-1,4-dihydroquinoline-3-carboxylic acid]	–	1000 to 10000 nM
O=C(O)c1cn(-c2ccc(O)cc2F)c2cc(N3CCC[C@@H]3COc3cnccn3)c(F)cc2c1=O [Compound 89, (R)-6-fluoro-1-(2-fluoro-4-hydroxy-phenyl)-4-oxo-7-(2-((pyrazin-2-yloxy)methyl)pyrrolidin-1-yl)-1,4-dihydro-quinoline-3-carboxylic acid]	10000 to 50000 nM	–
COCCNc1ccc(-n2cc(C(=O)O)c(=O)c3cc(I)c(N4CCC[C@@H]4COc4ncccc4Cl)cc32)cn1 [Example 558, (R)-7-(2-(((3-chloropyridin-2-yl)oxy)methyl)pyrrolidin-1-yl)-6-iodo-1-(6-((2-methoxyethyl)amino)pyridin-3-yl)-4-oxo-1,4-dihydroquinoline-3-carboxylic acid]	–	≤ 1000 nM
COc1ccc(Cl)c(OC[C@H]2CCCN2c2cc3c(cc2F)c(=O)c(C(=O)O)cn3-c2cnnc(N)c2)n1 [Example 646, (R)-1-(6-aminopyridazin-4-yl)-7-(2-(((3-chloro-6-methoxypyridin-2-yl)oxy)methyl)pyrrolidin-1-yl)-6-fluoro-4-oxo-1,4-dihydroquinoline-3-carboxylic acid]	–	≤ 1000 nM
Cc1cccc(F)c1-n1cc(C(=O)O)c(=O)c2cc(F)c(N3CCC[C@@H]3COc3ccccn3)cc21 [Example 390, (R)-6-fluoro-1-(2-fluoro-6-methylphenyl)-4-oxo-7-(2-((pyridin-2-yloxy)methyl)pyrrolidin-1-yl)-1,4-dihydroquinoline-3-carboxylic acid]	–	1000 to 10000 nM
CC1C[C@H](COc2ncccc2Cl)N(c2cc3c(cc2F)c(=O)c(C(=O)O)cn3-c2ccc(N3CC(N(C)C)C3)nc2)C1 (stereo partly drawn) [Compound 330, 7-[(2R)-2-[[(3-Chloropyridin-2-yl)oxy]methyl]-4-methyl-pyrrolidin-1-yl]-1-[6-[3-(dimethyl-amino)azetidin-1-yl]pyridin-3-yl]-6-fluoro-4-oxoquinoline-3-carboxylic acic]	≤ 1000 nM	–
O=C(O)c1cn(-c2ccc(F)c(O)c2)c2cc(N3CCC[C@@H]3COc3ccccn3)c(F)cc2c1=O [Example 534, (R)-6-fluoro-1-(4-fluoro-3-hydroxyphenyl)-4-oxo-7-(2-((pyridin-2-yloxy)methyl)pyrrolidin-1-yl)-1,4-dihydroquinoline-3-carboxylic acid]	–	≤ 1000 nM
CN(C)C1CN(c2ccc(-n3cc(C(=O)O)c(=O)c4cc(Cl)c(N5CCC[C@]5(C)COc5ncccc5Cl)nc43)cn2)C1 [Compound 185]	≤ 1000 nM	–
COc1ccc(Cl)c(-n2cc(C(=O)O)c(=O)c3cc(F)c(N4CCC[C@@H]4COc4ccccn4)cc32)c1 [Compound 157, (R)-1-(2-chloro-5-methoxy-phenyl)-6-fluoro-4-oxo-7-(2-((pyridin-2-yloxy)methyl)pyrrolidin-1-yl)-1,4-dihydro-quinoline-3-carboxylic acid]	1000 to 10000 nM	–
Cc1cccnc1OC[C@H]1CCCN1c1cc2c(cc1Cl)c(=O)c(C(=O)O)cn2-c1ccc(O)cc1 [Compound 104, (R)-6-chloro-1-(4-hydroxy-phenyl)-7-(2-(((3-methyl-pyridin-2-yl)oxy)methyl)pyrrolidin-1-yl)-4-oxo-1,4-dihydro-quinoline-3-carboxylic acid]	≤ 1000 nM	–
CO/N=C1\C[C@H](COc2nc(OC)ccc2Cl)N(c2cc3c(cc2Cl)c(=O)c(C(=O)O)cn3-c2ccc(N3CC(N(C)C)C3)nc2)C1 [Compound 200, (R,E)-6-chloro-7-(2-(((3-chloro-6-methoxy-pyridin-2-yl)oxy)methyl)-4-(methoxyimino)pyrrolidin-1-yl)-1-(6-(3-(dimethyl-amino)azetidin-1-yl)pyridin-3-yl)-4-oxo-1,4-dihydro-quinoline-3-carboxylic acid]	≤ 1000 nM	–
O=C(O)c1cn(-c2ccc(O)c(F)c2)c2cc(N3CCC[C@@H]3COc3ncccc3Cl)c(Cl)cc2c1=O [Compound 127, (R)-6-chloro-7-(2-(((3-chloropyridin-2-yl)oxy)methyl)pyrrolidin-1-yl)-1-(3-fluoro-4-hydroxy-phenyl)-4-oxo-1,4-dihydro-quinoline-3-carboxylic acid]	≤ 1000 nM	–
COCCOc1cnc(-n2cc(C(=O)O)c(=O)c3cc(Cl)c(N4CCC[C@@H]4COc4ncccc4Cl)cc32)cn1 [Example 419, (R)-6-chloro-7-(2-(((3-chloropyridin-2-yl)oxy)methyl)pyrrolidin-1-yl)-1-(5-(2-methoxy-ethoxy)pyrazin-2-yl)-4-oxo-1,4-dihydroquinoline-3-carboxylic acid]	–	≤ 1000 nM
O=C(O)c1cn(C2COC2)c2cc(N3CCC[C@@H]3COc3ccccn3)c(F)cc2c1=O [Compound 163, (R)-6-fluoro-1-(oxetan-3-yl)-4-oxo-7-(2-((pyridin-2-yloxy)methyl)pyrrolidin-1-yl)-1,4-dihydro-quinoline-3-carboxylic acid]	1000 to 10000 nM	–
Cc1c(F)cccc1-n1cc(C(=O)O)c(=O)c2cc(F)c(N3CCC[C@@H]3COc3ccccn3)cc21 [Example 397, (R)-6-fluoro-1-(3-fluoro-2-methylphenyl)-4-oxo-7-(2-((pyridin-2-yloxy)methyl)pyrrolidin-1-yl)-1,4-dihydroquinoline-3-carboxylic acid]	–	1000 to 10000 nM
Cc1cccnc1OC[C@H]1CCCN1c1cc2c(cc1Br)c(=O)c(C(=O)O)cn2C1(C)CC1 [Example 365, 6-Bromo-1-(1-methylcyclo-propyl)-7-[(2R)-2-{[(3-methyl-pyridin-2-yl)oxy]methyl}pyrrolidin-1-yl]-4-oxo-1,4-dihydroquinoline-3-carboxylic acid]	–	1000 to 10000 nM
O=C(O)c1cn(-c2ccc3[nH]c(=O)[nH]c3c2)c2cc(N3CCC[C@@H]3COc3ccccn3)c(F)cc2c1=O [Example 441, (R)-6-fluoro-4-oxo-1-(2-oxo-2,3-dihydro-1H-benzo[d]imidazol-5-yl)-7-(2-((pyridin-2-yloxy)methyl)pyrrolidin-1-yl)-1,4-dihydroquinoline-3-carboxylic acid]	–	≤ 1000 nM
COc1ccc(Cl)c(OC[C@H]2C[C@H]3C[C@H]3N2c2cc3c(cc2Cl)c(=O)c(C(=O)O)cn3-c2ccnc(N)c2)n1 [Compound 198, 1-(2-aminopyridin-4-yl)-6-chloro-7-((1R,3R,5R)-3-(((3-chloro-6-methoxy-pyridin-2-yl)oxy)methyl)-2-azabicyclo [3.1.0]hexan-2-yl)-4-oxo-1,4-dihydro-quinoline-3-carboxylic acid]	≤ 1000 nM	–
Cc1cccnc1OC[C@H]1CCCN1c1cc2c(cc1F)c(=O)c(C(=O)O)cn2-c1ccc(O)c(F)c1 [Compound 120, (R)-6-fluoro-1-(3-fluoro-4-hydroxy-phenyl)-7-(2-(((3-methylpyridin-2-yl)oxy)methyl)pyrrolidin-1-yl)-4-oxo-1,4-dihydro-quinoline-3-carboxylic acid]	≤ 1000 nM	–
